Values joined by “and” are separate entries in the source; they are usually repeats but may differ in a detail not shown here. Equal values may be shown once.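 Each compound was tested at five concentrations against cells in 96-well plates for 48 hours. At the GI50, growth is halved. TGI denotes the concentration required for complete inhibition of growth.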
Columns and labels:
Assay in all cases: growth of human tumour cells (NCI), 48 h
[1] = test system: KM12 colon
[2] = test system: MALME-3M melanoma
[3] = test system: MCF7 breast
[4] = test system: OVCAR-3 ovarian
[5] = test system: OVCAR-4 ovarian
[6] = test system: RPMI-8226 leukemia
[7] = test system: SF-268 CNS
[8] = test system: SK-MEL-28 melanoma
[9] = test system: SK-OV-3 ovarian
[10] = test system: TK-10 renal

Row | SMILES | GI50 [1] | TGI [1] [µM] | GI50 [2] | TGI [2] | GI50 [3] | TGI [3] [µM] | GI50 [4] | TGI [4] [µM] | GI50 [5] | TGI [5] [µM] | GI50 [6] | TGI [6] [µM] | GI50 [7] | TGI [7] [µM] | GI50 [8] | TGI [8] | GI50 [9] | TGI [9] | GI50 [10] | TGI [10]
1 | CNc1ncc2cc(-c3cc(NC(=O)NCCC(C)(C)C)c(F)cc3C)c(C)nc2n1 | 0.405 µM and 0.448 µM | > 100 | < 0.01 µM and 0.00462 µM | < 0.011 µM and 0.0522 µM | 4.98 µM and 8.58 µM | > 100 | 1.93 µM and 1.89 µM | > 100 | 0.543 µM and 0.785 µM | > 100 | 0.907 µM and 0.685 µM | > 52.6 | 0.716 µM and 0.721 µM | > 100 | < 0.01 µM and 0.0101 µM | 0.118 µM and 0.239 µM | 0.359 µM and 0.431 µM | 4.36 µM and 5.87 µM | 0.241 µM and 0.243 µM | 5.07 µM and 6.79 µM
2 | Fc1ccc(-c2nn3c(COc4ccc(Cl)cc4Cl)nnc3s2)cc1Oc1ccccc1 | 28.9 µM | 91.2 | 17 µM | 35.2 µM | 67.1 µM | > 100 | 0.705 µM | 13.3 | 24.6 µM | > 100 | 18.3 µM | 39.1 | 29.8 µM | 87.8 | 15.8 µM | 42.9 µM |  |  | 12.2 µM | 25.2 µM
3 | O=C1C(Br)=CC2(C=C1Br)CCNc1c(O)c3c4c(c12)=NCCC=4C=N3 |  | 1.61 |  | 0.0946 µM |  | 0.0745 |  | 0.0835 |  | 0.211 |  | 0.212 |  | 1.18 |  | 0.416 µM |  | 4.26 µM |  | 0.792 µM
4 | COc1cc2c(cc1O)C1CC(CC3CCCCN31)OC(=O)/C=C\c1ccc(O)c-2c1 (stereo not drawn) |  | 34.8 |  | 40.2 µM |  | 53.2 |  | 62 |  | > 100 |  | 89.8 |  | 72.3 |  | 85.2 µM |  | 96.7 µM |  | 95.8 µM
5 | Cc1cc(C#Cc2ccccc2)ccc1-n1c(/C=C/c2cc(O)ccc2O)nc2ccccc2c1=O | 1.65 µM | 3.07 | 1.5 µM | 3.72 µM | 1.45 µM | 2.87 | 1.49 µM | 2.81 | 2.4 µM | 8.5 | 1.26 µM | 6.08 | 1.31 µM | 3.07 | 1.53 µM | 2.87 µM | 1.83 µM | 4.61 µM | 2.03 µM | 5.61 µM
6 | N=C1/C(=C2\Nc3ccccc3S2)CC(=O)N1c1ccc(SC(F)F)cc1 | 8.13 µM | > 100 | > 100 µM | > 100 µM | 9.35 µM | > 100 | 17.1 µM | > 100 | 0.969 µM | 52.2 | 0.626 µM | 66 | 4.45 µM | > 100 | 4.38 µM | > 100 µM | 8.6 µM | > 100 µM | 22 µM | > 100 µM
7 | CC12CC(=O)C3C(CCC4=CC(=O)CCC43C)C1CC=C2CC(=O)O (stereo not drawn) |  | > 100 |  | > 100 µM |  | > 100 |  | > 100 |  | > 100 |  | > 100 |  | > 100 |  | > 100 µM |  | > 100 µM |  | > 100 µM

From PubChem BioAssay (NCI)
